Laboratory results: ChEMBL document CHEMBL5241092, “The antibacterial activity of fluoroquinolone derivatives: An update (2018-2021)” (2021)
Converted amounts (≈) assume the structure as drawn.

Assays:
Assay type in all cases: functional
Acinetobacter baumannii = assay: Antibacterial activity against quinolone resistant Acinetobacter baumannii
Pseudomonas aeruginosa [1] = assay: Antibacterial activity against Pseudomonas aeruginosa
Enterococcus faecium = assay: Antibacterial activity against Enterococcus faecium
Chlamydia trachomatis = assay: Antibacterial activity against Chlamydia trachomatis
Staphylococcus aureus [2] = assay: Antibacterial activity against Staphylococcus aureus
Klebsiella pneumoniae [3] = assay: Antibacterial activity against Klebsiella pneumoniae
Enterobacter = assay: Antibacterial activity against Enterobacter
Staphylococcus aureus [4] = assay: Antibacterial activity against methicillin susceptible Staphylococcus aureus
[5] = tested on: Staphylococcus epidermidis; assay: Antibacterial activity against Staphylococcus epidermidis
Staphylococcus aureus [6] = assay: Antibacterial activity against methicillin resistant Staphylococcus aureus
Staphylococcus aureus [7] = assay: Potency index, ratio of ciprofloxacin MIC to test compound MIC for antibacterial activity against Staphylococcus aureus
Escherichia coli [8] = assay: Antibacterial activity against Escherichia coli
[9] = tested on: Staphylococcus epidermidis; assay: Potency index, ratio of ciprofloxacin MIC to test compound MIC for antibacterial activity against methicillin sensitive Staphylococcus epidermidis
Staphylococcus aureus [10] = assay: Potency index, ratio of ciprofloxacin MIC to test compound MIC for antibacterial activity against methicillin sensitive Staphylococcus aureus
Staphylococcus aureus [11] = assay: Potency index, ratio of ciprofloxacin MIC to test compound MIC for antibacterial activity against methicillin resistant Staphylococcus aureus
Streptococcus pneumoniae [12] = assay: Potency index, ratio of gatifloxacin MIC to test compound MIC for antibacterial activity against methicillin susceptible Streptococcus pneumoniae
Streptococcus pneumoniae [13] = assay: Potency index, ratio of vancomycin MIC to test compound MIC for antibacterial activity against methicillin susceptible Streptococcus pneumoniae
Streptococcus pneumoniae [14] = assay: Antibacterial activity against Streptococcus pneumoniae
Staphylococcus aureus [15] = assay: Antibacterial activity against methicillin resistant Staphylococcus aureus 1
Staphylococcus aureus [16] = assay: Potency index, ratio of gatifloxacin MIC to test compound MIC for antibacterial activity against methicillin susceptible Staphylococcus aureus
Staphylococcus aureus [17] = assay: Antibacterial activity against methicillin resistant Staphylococcus aureus 2
Staphylococcus aureus [18] = assay: Antibacterial activity against methicillin resistant Staphylococcus aureus 3
Staphylococcus aureus [19] = assay: Potency index, ratio of vancomycin MIC to test compound MIC for antibacterial activity against Staphylococcus aureus
Staphylococcus aureus [20] = assay: Potency index, ratio of gatifloxacin MIC to test compound MIC for antibacterial activity against Staphylococcus aureus
Staphylococcus aureus [21] = assay: Potency index, ratio of vancomycin MIC to test compound MIC for antibacterial activity against methicillin susceptible Staphylococcus aureus
Pseudomonas aeruginosa [22] = assay: Antibacterial activity against Pseudomonas aeruginosa PAO750
Pseudomonas aeruginosa [23] = assay: Synergistic antibacterial activity against Pseudomonas aeruginosa assessed as reduction in mitomycin C MIC (reference value: […] to […] microg/ml)
Enterobacter cloacae = assay: Synergistic antibacterial activity against Enterobacter cloacae assessed as reduction in mitomycin C MIC (reference value: […] to […] microg/ml)
Klebsiella pneumoniae [24] = assay: Synergistic antibacterial activity against Klebsiella pneumoniae assessed as reduction in mitomycin C MIC (reference value: […] to […] microg/ml)
Pseudomonas aeruginosa [25] = assay: Antibacterial activity against Pseudomonas aeruginosa PAO200
Escherichia coli [26] = assay: Synergistic antibacterial activity against Escherichia coli assessed as reduction in mitomycin C MIC (reference value: […] to […] microg/ml)
Pseudomonas aeruginosa [27] = assay: Antibacterial activity against Pseudomonas aeruginosa PAO1
Escherichia coli [28] = assay: Antibacterial activity against Escherichia coli UTI89
Escherichia coli [29] = assay: Antibacterial activity against Escherichia coli CFT073

COc1c(N2CCN(C(=O)c3ccc4cccc(O)c4n3)CC2)c(F)cc2c(=O)c(C(=O)O)cn(C3CC3)c12
MIC (Acinetobacter baumannii): ≤ 0.06 µg/mL
MIC (Pseudomonas aeruginosa [1]): ≤ 0.06 µg/mL
MIC (Enterococcus faecium): ≤ 0.06 µg/mL
MBC (Chlamydia trachomatis): 2 µg/mL (≈ 3.76 µM)
MIC (Chlamydia trachomatis): ≤ 0.06 µg/mL
MIC (Staphylococcus aureus [2]): ≤ 0.06 µg/mL
MIC (Klebsiella pneumoniae [3]): ≤ 0.06 µg/mL
MIC (Enterobacter): ≤ 0.06 µg/mL

O=C(CSC(=S)N1CCN(c2cc3c(cc2F)c(=O)c(C(=O)O)cn3C2CC2)CC1)Nc1ccccc1Cl
MIC (Pseudomonas aeruginosa [1]): 0.024 µg/mL (≈ 0.0417 µM)
MIC (Staphylococcus aureus [4]): 0.097 µg/mL (≈ 0.169 µM)
MIC [5]: 0.097 µg/mL (≈ 0.169 µM)
MIC (Staphylococcus aureus [6]): 0.097 µg/mL (≈ 0.169 µM)
Ratio (Staphylococcus aureus [7]): 2
MIC (Escherichia coli [8]): 0.024 µg/mL (≈ 0.0417 µM)
MIC (Staphylococcus aureus [2]): 0.097 µg/mL (≈ 0.169 µM)
Ratio [9]: 2
Ratio (Staphylococcus aureus [10]): 2

O=C(O)c1cn(C2CC2)c2cc(N3CCN(Cc4nc5ccccc5c(=O)[nH]4)CC3)c(F)cc2c1=O
MIC (Staphylococcus aureus [6]): 0.016 µg/mL (≈ 0.0327 µM)
Ratio (Staphylococcus aureus [11]): 60
Ratio (Staphylococcus aureus [7]): 30
MIC (Staphylococcus aureus [2]): 0.016 µg/mL (≈ 0.0327 µM)

CO/N=C1/C(=O)N(Cc2cn(CC(=O)N3CCN(c4c(F)cc5c(=O)c(C(=O)O)cn(C6CC6)c5c4OC)CC3C)nn2)c2ccc(F)cc21 (configuration not stated)
Ratio (Streptococcus pneumoniae [12]): 2
Ratio (Streptococcus pneumoniae [13]): 2
MIC (Streptococcus pneumoniae [14]): 0.06 µg/mL (≈ 0.0869 µM)
MIC (Staphylococcus aureus [4]): 0.06 µg/mL (≈ 0.0869 µM)
MIC (Staphylococcus aureus [15]): ≤ 0.03 µg/mL
Ratio (Staphylococcus aureus [16]): 2
MIC (Staphylococcus aureus [17]): ≤ 0.03 µg/mL
MIC (Staphylococcus aureus [18]): ≤ 0.03 µg/mL
MIC (Staphylococcus aureus [2]): 0.06 µg/mL (≈ 0.0869 µM)
Ratio (Staphylococcus aureus [19]): 2
Ratio (Staphylococcus aureus [20]): 2
Ratio (Staphylococcus aureus [21]): 2

NC[C@H]1O[C@H](O[C@H]2[C@H](OCCCCN3CCN(c4cc5c(cc4F)c(=O)c(C(=O)O)cn5C4CC4)CC3)[C@@H](O[C@H]3O[C@H](CO)[C@@H](O)[C@H](N)[C@H]3O)[C@H](N)C[C@@H]2N)[C@H](N)C[C@@H]1O
MIC (Pseudomonas aeruginosa [22]): 2 µg/mL (≈ 2.34 µM)
MIC (Pseudomonas aeruginosa [23]): 0.31 µg/mL
MIC (Enterobacter cloacae): 0.31 µg/mL
MIC (Klebsiella pneumoniae [24]): 0.31 µg/mL
MIC (Pseudomonas aeruginosa [25]): 4 µg/mL (≈ 4.69 µM)
MIC (Escherichia coli [26]): 0.31 µg/mL
MIC (Pseudomonas aeruginosa [27]): 32 µg/mL (≈ 37.5 µM)

CC(=O)c1cn(C2CC2)c2cc(N3CCN(C(=O)CCCCCNC(=O)c4cc(O)c(O)c(C(=O)N[C@H]5COC(=O)[C@@H](NC(=O)c6cccc(O)c6O)COC(=O)[C@@H](NC(=O)c6cccc(O)c6O)COC5=O)c4)CC3)c(F)cc2c1=O
MIC (Escherichia coli [28]): 0.1 µg/mL (≈ 0.0879 µM)
MIC (Escherichia coli [29]): 0.1 µg/mL (≈ 0.0879 µM)
